Data published in patent publication US20260242353A1, “HETEROARYL DERIVATIVES AS DDRs INHIBITORS” (CHIESI FARMACEUTICI S.P.A., priority 2022, published 2026).

Assays:
DDR1 = molecular target: T1, DDR1 (Homo sapiens, UniProt Q08345); test: LanthaScreen Europium Kinase Binding assay, DDR1; conditions: 5 nM DDR1, 20 nM Kinase Tracer 178, 1 h at rt; Ki from IC50 by Cheng-Prusoff; read-out: Ki DDR1
T1 construct: purchased Carna Biosciences
Protocol: (§1) DDR1 and DDR2 binding assays were performed using Life Technologies LanthaScreen™ Europium Kinase Binding assay. The compounds were incubated with 5 nM DDR1 (Carna Biosciences) or 5 nM DDR2 (Life Technologies) for 1 h at rt in white 384-well OptiPlate (PerkinElmer), containing 20 nM or 10 nM Kinase Tracer 178 respectively and 2 nM Europium labelled anti-GST antibody (Life Technologies) in assay buffer (50 mM HEPES pH 7.5, 10 mM MgCI2, 1 mM EGTA and 0.01% BRIJ35). The ratio of fluorescence emission 665 nm/615 nm after excitation at 340 nm was obtained using the Tecan Spark 20M plate reader. IC50 values were determined in GraphPad Prism 7.0 software, using 4 parameter model: log(inhibitor) vs. response. IC50 values were converted in Ki using the Cheng-Prusoff equation (Ki=IC50/(1+[Tracer]/Kd).

DDR2 = molecular target: T2, DDR2 (Homo sapiens, UniProt Q16832); test: LanthaScreen Europium Kinase Binding assay, DDR2; conditions: 5 nM DDR2, 10 nM Kinase Tracer 178, 1 h at rt; Ki from IC50 by Cheng-Prusoff; read-out: Ki DDR2
T2 construct: purchased Life Technologies
T2 sequence (Q16832 22-855): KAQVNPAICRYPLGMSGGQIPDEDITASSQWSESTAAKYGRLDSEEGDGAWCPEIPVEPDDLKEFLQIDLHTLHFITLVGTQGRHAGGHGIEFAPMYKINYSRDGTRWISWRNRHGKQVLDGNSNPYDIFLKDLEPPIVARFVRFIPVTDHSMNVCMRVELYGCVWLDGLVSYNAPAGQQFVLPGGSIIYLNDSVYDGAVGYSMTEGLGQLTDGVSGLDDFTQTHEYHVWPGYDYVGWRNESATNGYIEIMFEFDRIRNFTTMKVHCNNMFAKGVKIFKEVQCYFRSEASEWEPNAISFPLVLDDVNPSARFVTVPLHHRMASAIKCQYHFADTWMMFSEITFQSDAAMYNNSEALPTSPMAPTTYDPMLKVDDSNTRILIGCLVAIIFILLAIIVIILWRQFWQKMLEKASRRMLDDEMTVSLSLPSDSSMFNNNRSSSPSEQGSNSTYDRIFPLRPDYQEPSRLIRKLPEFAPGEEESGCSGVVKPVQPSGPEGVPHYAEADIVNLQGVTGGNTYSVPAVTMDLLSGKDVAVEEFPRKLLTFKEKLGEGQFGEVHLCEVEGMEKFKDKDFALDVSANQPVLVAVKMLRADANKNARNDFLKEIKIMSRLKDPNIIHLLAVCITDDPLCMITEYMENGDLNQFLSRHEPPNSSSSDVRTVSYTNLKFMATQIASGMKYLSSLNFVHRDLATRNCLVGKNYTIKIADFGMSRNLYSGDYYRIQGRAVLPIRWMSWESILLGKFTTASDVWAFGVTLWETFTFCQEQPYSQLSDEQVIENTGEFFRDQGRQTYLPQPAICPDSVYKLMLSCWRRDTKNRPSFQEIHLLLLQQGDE
Protocol: as §1

T1 sequence (Q08345 19-913): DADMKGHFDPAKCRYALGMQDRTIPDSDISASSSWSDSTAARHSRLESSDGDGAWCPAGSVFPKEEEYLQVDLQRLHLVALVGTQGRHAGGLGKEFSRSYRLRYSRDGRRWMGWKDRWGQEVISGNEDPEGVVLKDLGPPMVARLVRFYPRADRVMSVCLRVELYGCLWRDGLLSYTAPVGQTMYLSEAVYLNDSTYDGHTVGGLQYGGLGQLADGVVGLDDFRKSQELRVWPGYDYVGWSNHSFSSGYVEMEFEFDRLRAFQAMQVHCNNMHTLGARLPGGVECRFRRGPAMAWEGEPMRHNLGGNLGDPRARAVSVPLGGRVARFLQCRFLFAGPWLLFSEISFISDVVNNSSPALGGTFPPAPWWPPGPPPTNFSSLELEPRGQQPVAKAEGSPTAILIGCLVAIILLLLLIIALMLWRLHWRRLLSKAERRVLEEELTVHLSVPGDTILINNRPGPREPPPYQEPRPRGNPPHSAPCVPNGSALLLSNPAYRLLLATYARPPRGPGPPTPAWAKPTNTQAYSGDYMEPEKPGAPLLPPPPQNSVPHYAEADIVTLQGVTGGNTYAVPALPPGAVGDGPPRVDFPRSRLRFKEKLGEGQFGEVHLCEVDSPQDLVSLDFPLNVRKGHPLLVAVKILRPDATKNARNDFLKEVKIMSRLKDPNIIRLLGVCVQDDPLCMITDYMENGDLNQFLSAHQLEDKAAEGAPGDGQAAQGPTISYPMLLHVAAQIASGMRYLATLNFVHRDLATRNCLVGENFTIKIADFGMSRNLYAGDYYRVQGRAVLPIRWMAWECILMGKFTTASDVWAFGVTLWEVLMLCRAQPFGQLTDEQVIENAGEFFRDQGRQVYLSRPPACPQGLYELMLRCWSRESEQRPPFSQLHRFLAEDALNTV

SMILES	Ki (DDR1)	Ki (DDR2)
Cc1ccc(C(=O)Nc2ccc(OC(F)(F)F)cn2)cc1[C@@H]1CCN(c2cncc(C(N)=O)c2)C1 [Example 10, (S)-5-(3-(2-methyl-5-((5-(trifluoromethoxy)pyridin-2-yl)carbamoyl)phenyl)pyrrolidin-1-yl)nicotinamide]	< 5 nM	5 to 25 nM
Cc1ccc(C(=O)Nc2cc(C(C)(C)C)on2)cc1[C@@H]1CCN(c2cncc(C(N)=O)c2)C1 [Example 11, (S)-5-(3-(5-((5-(tert-butyl)isoxazol-3-yl)carbamoyl)-2-methylphenyl)pyrrolidin-1-yl)nicotinamide]	< 5 nM	< 5 nM
Cc1ccc(C(=O)Nc2cc(OC(F)(F)F)ccn2)cc1[C@@H]1CCN(c2cncnc2)C1 [Example 12, (S)-4-methyl-3-(1-(pyrimidin-5-yl)pyrrolidin-3-yl)-N-(4-(trifluoro-methoxy)pyridin-2-yl)benzamide]	< 5 nM	< 5 nM
Cc1ccc(C(=O)Nc2cc(C(C)(C)C)n(C)n2)cc1[C@@H]1CCN(c2cncnc2)C1 [Example 13, (S)-N-(5-(tert-butyl)-1-methyl-1H-pyrazol-3-yl)-4-methyl-3-(1-(pyrimidin-5-yl)pyrrolidin-3-yl)benzamide]	< 5 nM	< 5 nM
Cc1ccc(C(=O)Nc2cc(C(C)(C)C(F)(F)F)on2)cc1[C@@H]1CCN(c2cncnc2)C1 [Example 14, (S)-4-methyl-3-(1-(pyrimidin-5-yl)pyrrolidin-3-yl)-N-(5-(1,1,1-trifluoro-2-methylpropan-2-yl)isoxazol-3-yl)benzamide]	< 5 nM	< 5 nM
Cc1ccc(C(=O)Nc2cc(C(F)(F)F)ccn2)cc1[C@@H]1CCN(c2cncnc2)C1 [Example 15, (S)-4-methyl-3-(1-(pyrimidin-5-yl)pyrrolidin-3-yl)-N-(4-(trifluoromethyl)pyridin-2-yl)benzamide]	< 5 nM	< 5 nM
Cc1ccc(C(=O)Nc2cc(C(C)(C)C)on2)cc1[C@@H]1CCN(c2cncnc2)C1 [Example 16, (S)-N-(5-(tert-butyl)isoxazol-3-yl)-4-methyl-3-(1-(pyrimidin-5-yl)pyrrolidin-3-yl)benzamide]	< 5 nM	< 5 nM
Cc1ccc(C(=O)Nc2cc(C(C)(C)C)nn2C)cc1[C@@H]1CCN(c2cncnc2)C1 [Example 17, (S)-N-(3-(tert-butyl)-1-methyl-1H-pyrazol-5-yl)-4-methyl-3-(1-(pyrimidin-5-yl)pyrrolidin-3-yl)benzamide]	< 5 nM	5 to 25 nM
Cc1ccc(C(=O)Nc2cncc(OC(F)(F)F)c2)cc1[C@@H]1CCN(c2cncnc2)C1 [Example 18, (S)-4-methyl-3-(1-(pyrimidin-5-yl)pyrrolidin-3-yl)-N-(5-(trifluoromethoxy)pyridin-3-yl)benzamide]	< 5 nM	< 5 nM
Cc1ccc(C(=O)Nc2cc(C(C)(C)C)no2)cc1[C@@H]1CCN(c2cncnc2)C1 [Example 19, (S)-N-(3-(tert-butyl)isoxazol-5-yl)-4-methyl-3-(1-(pyrimidin-5-yl)pyrrolidin-3-yl)benzamide]	< 5 nM	< 5 nM
Cc1ccc(C(=O)Nc2ccc(OC(F)(F)F)cn2)cc1[C@@H]1CCN(c2cncnc2)C1 [Example 20, (S)-4-methyl-3-(1-(pyrimidin-5-yl)pyrrolidin-3-yl)-N-(5-(trifluoromethoxy)pyridin-2-yl)benzamide]	< 5 nM	5 to 25 nM
Cc1ccc(C(=O)Nc2cc(OC(F)F)ccn2)cc1[C@@H]1CCN(c2cncnc2)C1 [Example 21, (S)-N-(4-(difluoromethoxy)pyridin-2-yl)-4-methyl-3-(1-(pyrimidin-5-yl)pyrrolidin-3-yl)benzamide]	< 5 nM	< 5 nM
Cc1ccc(C(=O)Nc2cncc(C(F)(F)F)c2)cc1[C@@H]1CCN(c2cncc(C(F)F)c2)C1 [Example 22, (S)-3-(1-(5-(difluoromethyl)pyridin-3-yl)pyrrolidin-3-yl)-4-methyl-N-(5-(trifluoromethyl)pyridin-3-yl)benzamide]	< 5 nM	5 to 25 nM
Cc1ccc(C(=O)Nc2cncc(C(F)(F)F)c2)cc1[C@@H]1CCN(c2cncc(C(=O)NCCN(C)C)c2)C1 [Example 23, (S)-N-(2-(dimethylamino)ethyl)-5-(3-(2-methyl-5-((5-(trifluoromethyl)pyridin-3-yl)carbamoyl)phenyl)pyrrolidin-1-yl)nicotinamide]	< 5 nM	5 to 25 nM
COCCNC(=O)c1cncc(N2CC[C@@H](c3cc(C(=O)Nc4cncc(C(F)(F)F)c4)ccc3C)C2)c1 [Example 24, (S)-N-(2-methoxyethyl)-5-(3-(2-methyl-5-((5-(trifluoromethyl)pyridin-3-yl)carbamoyl)phenyl)pyrrolidin-1-yl)nicotinamide]	< 5 nM	< 5 nM
COc1ncc(N2CC[C@@H](c3cc(C(=O)Nc4cncc(C(F)(F)F)c4)ccc3C)C2)cn1 [Example 25, (S)-3-(1-(2-methoxypyrimidin-5-yl)pyrrolidin-3-yl)-4-methyl-N-(5-(trifluoromethyl)pyridin-3-yl)benzamide]	< 5 nM	5 to 25 nM
Cc1ccc(C(=O)Nc2cncc(C(F)(F)F)c2)cc1[C@@H]1CCN(c2cncc(C#N)c2)C1 [Example 27, (S)-3-(1-(5-cyanopyridin-3-yl)pyrrolidin-3-yl)-4-methyl-N-(5-(trifluoromethyl)pyridin-3-yl)benzamide]	< 5 nM	< 5 nM
CC(=O)Nc1cncc(N2CC[C@@H](c3cc(C(=O)Nc4cncc(C(F)(F)F)c4)ccc3C)C2)c1 [Example 28, (S)-3-(1-(5-acetamidopyridin-3-yl)pyrrolidin-3-yl)-4-methyl-N-(5-(trifluoromethyl)pyridin-3-yl)benzamide]	< 5 nM	< 5 nM
CNC(=O)c1cncc(N2CC[C@@H](c3cc(C(=O)Nc4cncc(C(F)(F)F)c4)ccc3C)C2)c1 [Example 29, (S)-N-methyl-5-(3-(2-methyl-5-((5-(trifluoromethyl)pyridin-3-yl)carbamoyl)phenyl)pyrrolidin-1-yl)nicotinamide]	< 5 nM	< 5 nM
Cc1ccc(C(=O)Nc2cncc(C(F)(F)F)c2)cc1[C@@H]1CCN(c2cncc(C(=O)NCCO)c2)C1 [Example 30, (S)-N-(2-hydroxyethyl)-5-(3-(2-methyl-5-((5-(trifluoromethyl)pyridin-3-yl)carbamoyl)phenyl)pyrrolidin-1-yl)nicotinamide]	< 5 nM	5 to 25 nM
Cc1ccc(C(=O)Nc2cncc(C(F)(F)F)c2)cc1[C@@H]1CCN(c2cnn3ccncc23)C1 [Example 32, (S)-4-methyl-3-(1-(pyrazolo[1,5-a]pyrazin-3-yl)pyrrolidin-3-yl)-N-(5-(trifluoromethyl)pyridin-3-yl)benzamide]	< 5 nM	< 5 nM
Cc1ccc(C(=O)Nc2cncc(C(F)(F)F)c2)cc1[C@@H]1CCN(c2cnccn2)C1 [Example 33, (S)-4-methyl-3-(1-(pyrazin-2-yl)pyrrolidin-3-yl)-N-(5-(trifluoromethyl)pyridin-3-yl)benzamide]	< 5 nM	< 5 nM
Cc1ccc(C(=O)Nc2cncc(C(F)(F)F)c2)cc1[C@@H]1CCN(c2cnn3ccccc23)C1 [Example 34, (S)-4-methyl-3-(1-(pyrazolo[1,5-a]pyridin-3-yl)pyrrolidin-3-yl)-N-(5-(trifluoromethyl)pyridin-3-yl)benzamide]	< 5 nM	5 to 25 nM
Cc1ccc(C(=O)Nc2cncc(C(F)(F)F)c2)cc1[C@@H]1CCN(c2cnn3cccnc23)C1 [Example 35, (S)-4-methyl-3-(1-(pyrazolo[1,5-a]pyrimidin-3-yl)pyrrolidin-3-yl)-N-(5-(trifluoromethyl)pyridin-3-yl)benzamide]	< 5 nM	< 5 nM
Cc1ccc(C(=O)Nc2cncc(C(F)(F)F)c2)cc1[C@@H]1CCN(c2cnc3cccnn23)C1 [Example 36, (S)-3-(1-(imidazo[1,2-b]pyridazin-3-yl)pyrrolidin-3-yl)-4-methyl-N-(5-(trifluoromethyl)pyridin-3-yl)benzamide]	< 5 nM	5 to 25 nM
